Assay results from ChEMBL document CHEMBL4680148, “Semisynthesis and biological evaluation of amidochelocardin derivatives as broad-spectrum antibiotics” (Eur J Med Chem, 2020).
Values after ≈ are worked out from the molar mass of the structure shown.

Experiments:
Escherichia coli [1] = assay: Antibacterial activity against Escherichia coli DSM-1116 assessed as minimum inhibitory concentration required for inhibition of bacterial growth in presence of outer membrane permeabilizer PMBN measured after 18 hrs by microdilution method; assay type: functional
Escherichia coli [2] = assay: Antibacterial activity against Escherichia coli DSM-1116 assessed as minimum inhibitory concentration required for inhibition of bacterial growth measured after 18 hrs by microdilution method; assay type: functional
Pseudomonas aeruginosa [3] = assay: Antibacterial activity against Pseudomonas aeruginosa PA14 delta mexAB assessed as minimum inhibitory concentration required for inhibition of bacterial growth measured after 18 hrs by microdilution method; assay type: functional
Enterococcus faecium = assay: Antibacterial activity against Enterococcus faecium DSM-20477 assessed as minimum inhibitory concentration required for inhibition of bacterial growth measured after 18 hrs by microdilution method; assay type: functional
Staphylococcus aureus [4] = assay: Antibacterial activity against Staphylococcus aureus Newman assessed as minimum inhibitory concentration required for inhibition of bacterial growth measured after 18 hrs by microdilution method; assay type: functional
Staphylococcus aureus [5] = assay: Antibacterial activity against Staphylococcus aureus DSM-11822 assessed as minimum inhibitory concentration required for inhibition of bacterial growth measured after 18 hrs by microdilution method; assay type: functional
Klebsiella pneumoniae [6] = assay: Antibacterial activity against Klebsiella pneumoniae DSM-30104 assessed as minimum inhibitory concentration required for inhibition of bacterial growth measured after 18 hrs by microdilution method; assay type: functional
Pseudomonas aeruginosa [7] = assay: Antibacterial activity against Pseudomonas aeruginosa PA14 assessed as minimum inhibitory concentration required for inhibition of bacterial growth measured after 18 hrs by microdilution method; assay type: functional
Pseudomonas aeruginosa [8] = assay: Antibacterial activity against Pseudomonas aeruginosa PA14 delta mexAB assessed as minimum inhibitory concentration required for inhibition of bacterial growth in presence of outer membrane permeabilizer PMBN measured after 18 hrs by microdilution method; assay type: functional
[9] = Stability of the compound in Escherichia coli growth medium assessed as intact compound by LC-MS analysis; assay type: physicochemical
[10] = Stability of the compound in Escherichia coli assessed as intact compound by LC-MS analysis; assay type: ADME
Klebsiella pneumoniae [11] = assay: Antibacterial activity against Klebsiella pneumoniae DSM-30104 assessed as minimum inhibitory concentration required for inhibition of bacterial growth in presence of outer membrane permeabilizer PMBN measured after 18 hrs by microdilution method; assay type: functional
Pseudomonas aeruginosa [12] = assay: Antibacterial activity against Pseudomonas aeruginosa DSM-1128 assessed as minimum inhibitory concentration required for inhibition of bacterial growth measured after 18 hrs by microdilution method; assay type: functional
Escherichia coli [13] = assay: Antibacterial activity against Escherichia coli assessed as minimum inhibitory concentration required for inhibition of bacterial growth measured after 18 hrs by microdilution method; assay type: functional
Escherichia coli [14] = assay: Antibacterial activity against Escherichia coli assessed as minimum inhibitory concentration required for inhibition of bacterial growth in presence of outer membrane permeabilizer PMBN measured after 18 hrs by microdilution method; assay type: functional
Staphylococcus aureus [15] = assay: Antibacterial activity against Staphylococcus aureus DSM-346 assessed as minimum inhibitory concentration required for inhibition of bacterial growth measured after 18 hrs by microdilution method; assay type: functional

SMILES	MIC (Pseudomonas aeruginosa [3]) [µg/mL]	MIC (Enterococcus faecium) [µg/mL]	MIC (Staphylococcus aureus [4]) [µg/mL]	MIC (Staphylococcus aureus [5]) [µg/mL]	MIC (Klebsiella pneumoniae [6]) [µg/mL]	MIC (Pseudomonas aeruginosa [7]) [µg/mL]	other results
C=CC(=O)N[C@H]1C(O)=C(C(N)=O)C(=O)[C@@]2(O)C(=O)c3c(c(C)c4ccc(C)c(O)c4c3O)C[C@@H]12	> 64	8 (≈ 17.2 µM)	4 (≈ 8.58 µM)	–	–	–	MIC (Escherichia coli [1]): 2 µg/mL; MIC (Escherichia coli [2]): 32 µg/mL (≈ 68.6 µM)
Cc1ccc2c(C)c3c(c(O)c2c1OC(=O)c1ccc(Br)cc1)C(=O)[C@]1(O)C(=O)C(C(N)=O)=C(O)[C@H](N)[C@@H]1C3	–	4 (≈ 6.72 µM)	4 (≈ 6.72 µM)	–	–	–	MIC (Pseudomonas aeruginosa [8]): > 64 µg/mL; MIC (Escherichia coli [1]): 64 µg/mL; MIC (Escherichia coli [2]): > 64 µg/mL; Stabilty [9]: Stable; Stabilty [10]: Stable
Cc1ccc2c(C)c3c(c(O)c2c1O)C(=O)[C@]1(O)C(=O)C(C(N)=O)=C(O)[C@H](NS(C)(=O)=O)[C@@H]1C3	–	32 (≈ 65.2 µM)	–	> 64	> 64	> 64	–
Cc1ccc2c(C)c3c(c(O)c2c1O)C(=O)[C@]1(O)C(=O)C(C(N)=O)=C(O)[C@H](N2C(=O)c4ccccc4C2=O)[C@@H]1C3	> 64	–	–	0.125 (≈ 0.23 µM)	> 64	> 64	MIC (Escherichia coli [13]): > 64 µg/mL; MIC (Escherichia coli [14]): 0.5 µg/mL
Cc1ccc2c(C)c3c(c(O)c2c1O)C(=O)[C@]1(O)C(=O)C(C(N)=O)=C(O)[C@H](N(C)C)[C@@H]1C3	–	> 64	–	–	> 64	> 64	MIC (Staphylococcus aureus [15]): > 64 µg/mL
CN[C@H]1C(O)=C(C(N)=O)C(=O)[C@@]2(O)C(=O)c3c(c(C)c4ccc(C)c(O)c4c3O)C[C@@H]12	–	> 64	–	–	> 64	> 64	MIC (Staphylococcus aureus [15]): > 64 µg/mL
Cc1ccc2c(C)c3c(c4c2c1O[Si](C(C)(C)C)(C(C)(C)C)O4)C(=O)[C@]1(O)C(=O)C(C(N)=O)=C(O)[C@H](N)[C@@H]1C3	–	–	–	1 (≈ 1.81 µM)	> 64	> 64	MIC (Escherichia coli [13]): 64 µg/mL (≈ 116 µM); MIC (Escherichia coli [14]): 8 µg/mL
CC(=O)Oc1c(C)ccc2c(C)c3c(c(O)c12)C(=O)[C@]1(O)C(=O)C(C(N)=O)=C(O)[C@H](N)[C@@H]1C3	–	16 (≈ 35.2 µM)	16 (≈ 35.2 µM)	–	–	–	MIC (Pseudomonas aeruginosa [8]): 1 µg/mL; MIC (Escherichia coli [2]): 8 µg/mL (≈ 17.6 µM); Stabilty [9]: Stable; Stabilty [10]: Stable
Cc1ccc2c(C)c3c(c(O)c2c1O)C(=O)[C@]1(O)C(=O)C(C(N)=O)=C(O)[C@H](NC(=O)CN2CCN(C)CC2)[C@@H]1C3	32 (≈ 57.9 µM)	> 64	> 64	–	–	–	MIC (Escherichia coli [1]): 32 µg/mL; MIC (Escherichia coli [2]): 54 µg/mL (≈ 97.7 µM)
CC(=O)N[C@H]1C(O)=C(C(N)=O)C(=O)[C@@]2(O)C(=O)c3c(c(C)c4ccc(C)c(O)c4c3O)C[C@@H]12	–	32 (≈ 70.4 µM)	–	> 64	> 64	> 64	–
Cc1ccc2c(C)c3c(c(O)c2c1O)C(=O)[C@]1(O)C(=O)C(C(N)=O)=C(O)[C@H](NC(=O)OCc2ccccc2)[C@@H]1C3	–	0.25 (≈ 0.457 µM)	–	> 64	> 64	> 64	–
COc1ccc(-c2cc(C)c(O)c3c(O)c4c(c(C)c23)C[C@H]2[C@@H](N)C(O)=C(C(N)=O)C(=O)[C@@]2(O)C4=O)cc1	–	–	–	1 (≈ 1.93 µM)	> 64	> 64	MIC (Escherichia coli [13]): 32 µg/mL (≈ 61.7 µM); MIC (Escherichia coli [14]): 2 µg/mL
Cc1ccc2c(C)c3c(c(O)c2c1O)C(=O)[C@]1(O)C(=O)C(C(N)=O)=C(O)[C@H](NC(=O)CCN)[C@@H]1C3	32 (≈ 66.2 µM)	> 64	64 (≈ 132 µM)	–	–	–	MIC (Escherichia coli [1]): 8 µg/mL; MIC (Escherichia coli [2]): 16 µg/mL (≈ 33.1 µM)

Further lines, with some results ahead:

MIC (Pseudomonas aeruginosa [3]) [µg/mL]	MIC (Enterococcus faecium) [µg/mL]	MIC (Staphylococcus aureus [4]) [µg/mL]	MIC (Staphylococcus aureus [5]) [µg/mL]	MIC (Klebsiella pneumoniae [6]) [µg/mL]	MIC (Pseudomonas aeruginosa [7]) [µg/mL]	SMILES	other results
–	> 64	–	> 64	> 64	> 64	Cc1cc([N+](=O)[O-])c2c(C)c3c(c(O)c2c1O)C(=O)[C@]1(O)C(=O)C(C(N)=O)=C(O)[C@H](N)[C@@H]1C3	–
–	–	32 (≈ 75.1 µM)	–	> 64	–	CC1=CC(=O)c2c(C)c3c(c(O)c2C1=O)C(=O)[C@]1(O)C(=O)C(C(N)=O)=C(O)[C@H](N)[C@@H]1C3	MIC (Klebsiella pneumoniae [11]): 64 µg/mL; MIC (Pseudomonas aeruginosa [12]): > 64 µg/mL
64 (≈ 117 µM)	–	–	4 (≈ 7.32 µM)	> 64	> 64	COc1ccc(C(=O)N[C@H]2C(O)=C(C(N)=O)C(=O)[C@@]3(O)C(=O)c4c(c(C)c5ccc(C)c(O)c5c4O)C[C@@H]23)cc1	–
4 (≈ 9.29 µM)	–	–	4 (≈ 9.29 µM)	8 (≈ 18.6 µM)	8 (≈ 18.6 µM)	Cc1cc(F)c2c(C)c3c(c(O)c2c1O)C(=O)[C@]1(O)C(=O)C(C(N)=O)=C(O)[C@H](N)[C@@H]1C3	–
0.5	4	–	8	2	16	Cc1ccc2c(C)c3c(c(O)c2c1O)C(=O)[C@]1(O)C(=O)C(C(N)=O)=C(O)[C@H](N)[C@@H]1C3.O=C([O-])CC(O)(CC(=O)[O-])C(=O)[O-].[Na+].[Na+].[Na+]	MIC (Escherichia coli [2]): 0.5 µg/mL; Stabilty [9]: Unstable; Stabilty [10]: Unstable
–	–	8 (≈ 16.3 µM)	–	8 (≈ 16.3 µM)	–	Cc1cc(Br)c2c(C)c3c(c(O)c2c1O)C(=O)[C@]1(O)C(=O)C(C(N)=O)=C(O)[C@H](N)[C@@H]1C3	MIC (Klebsiella pneumoniae [11]): 4 µg/mL; MIC (Pseudomonas aeruginosa [12]): 32 µg/mL (≈ 65.1 µM)
4	8	–	8	2	64	CC(=O)C1=C(O)[C@H](N)[C@@H]2Cc3c(c(O)c4c(O)c(C)ccc4c3C)C(=O)[C@]2(O)C1=O.O=C([O-])CC(O)(CC(=O)[O-])C(=O)[O-].[Na+].[Na+].[Na+]	MIC (Escherichia coli [2]): 2 µg/mL
> 64	–	–	2 (≈ 4.06 µM)	64 (≈ 130 µM)	> 64	Cc1ccc2c(C)c3c(c(O)c2c1O)C(=O)[C@]1(O)C(=O)C(C(N)=O)=C(O)[C@H](N2C(=O)C=CC2=O)[C@@H]1C3	MIC (Escherichia coli [13]): > 64 µg/mL; MIC (Escherichia coli [14]): 8 µg/mL
–	–	4 (≈ 8.95 µM)	–	8 (≈ 17.9 µM)	–	Cc1cc(Cl)c2c(C)c3c(c(O)c2c1O)C(=O)[C@]1(O)C(=O)C(C(N)=O)=C(O)[C@H](N)[C@@H]1C3	MIC (Klebsiella pneumoniae [11]): 8 µg/mL; MIC (Pseudomonas aeruginosa [12]): 16 µg/mL (≈ 35.8 µM)
64 (≈ 132 µM)	–	–	2 (≈ 4.13 µM)	16 (≈ 33 µM)	> 64	CCOC(=O)N[C@H]1C(O)=C(C(N)=O)C(=O)[C@@]2(O)C(=O)c3c(c(C)c4ccc(C)c(O)c4c3O)C[C@@H]12	–
–	–	–	0.5 (≈ 0.942 µM)	32 (≈ 60.3 µM)	> 64	Cc1cc(C)c(-c2cc(C)c(O)c3c(O)c4c(c(C)c23)C[C@H]2[C@@H](N)C(O)=C(C(N)=O)C(=O)[C@@]2(O)C4=O)c(C)c1	MIC (Escherichia coli [13]): > 64 µg/mL; MIC (Escherichia coli [14]): 8 µg/mL
